Source: patent US9266844B2 (priority 2012, dated 2016)
“Also recorded” adds a separate entry of the source. Where two headings read alike, the source gives them in different places.

What was measured:
nsp13 [1] = biological target: T1, nsp13 (Severe acute respiratory syndrome coronavirus, UniProt P0C6X7); format: biochemical, SARS-CoV
RNA pol II/CMV promoter = format: cell-based
[2] = biological target: Dengue virus NS3 helicase (Dengue virus type 2, UniProt P14340); format: biochemical
dsDNA (31/18-mer) = format: binding
nsp13 [3] = biological target: T1, nsp13; format: binding, SARS-CoV
SARS-CoV nsp13 helicase = SARS-CoV nsp13 helicase (Severe acute respiratory syndrome coronavirus, UniProt P0C6X7); assay: biochemical
nsp13 [4] = biological target: T1, nsp13; assay: biochemical; format: biochemical, SARS-CoV
SARS-CoV replicon [5] = assay: microbe, parasite or virus in culture; format: cell-based; conditions: read-out: EC50 Replicon (RT-qPCR)
in vitro = conditions: human
[6] = biological target: Klenow fragment of E. coli DNA polymerase I (KF) (Escherichia coli, UniProt P00582); format: biochemical
Chain of Klenow fragment of E. coli DNA polymerase I (KF) (P00582 324-928): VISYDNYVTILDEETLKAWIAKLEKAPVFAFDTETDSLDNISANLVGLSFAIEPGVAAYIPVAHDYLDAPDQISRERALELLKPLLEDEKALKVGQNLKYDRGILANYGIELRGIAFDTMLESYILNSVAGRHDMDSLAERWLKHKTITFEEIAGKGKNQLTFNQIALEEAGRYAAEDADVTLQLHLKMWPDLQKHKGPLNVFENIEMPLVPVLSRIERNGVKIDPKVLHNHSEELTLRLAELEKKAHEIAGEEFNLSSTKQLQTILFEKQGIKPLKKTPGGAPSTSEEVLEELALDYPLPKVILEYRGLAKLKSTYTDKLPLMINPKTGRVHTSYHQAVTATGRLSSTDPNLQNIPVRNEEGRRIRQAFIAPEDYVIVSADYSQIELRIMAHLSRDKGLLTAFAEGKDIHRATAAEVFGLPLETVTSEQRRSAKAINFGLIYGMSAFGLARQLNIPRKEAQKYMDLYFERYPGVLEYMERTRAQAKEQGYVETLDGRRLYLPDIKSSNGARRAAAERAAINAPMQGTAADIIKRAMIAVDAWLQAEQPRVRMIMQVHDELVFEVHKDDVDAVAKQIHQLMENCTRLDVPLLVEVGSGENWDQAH

WT-nsp13 = WT-nsp13 (Severe acute respiratory syndrome coronavirus, UniProt P0C6X7); assay: biochemical
SARS-CoV replicon [7] = format: cell-based
HCV NS3h helicase = HCV NS3h helicase (Hepatitis C virus genotype 1a, UniProt P27958); format: biochemical
Chain of HCV NS3h helicase (P27958 1193-1657 limits assumed): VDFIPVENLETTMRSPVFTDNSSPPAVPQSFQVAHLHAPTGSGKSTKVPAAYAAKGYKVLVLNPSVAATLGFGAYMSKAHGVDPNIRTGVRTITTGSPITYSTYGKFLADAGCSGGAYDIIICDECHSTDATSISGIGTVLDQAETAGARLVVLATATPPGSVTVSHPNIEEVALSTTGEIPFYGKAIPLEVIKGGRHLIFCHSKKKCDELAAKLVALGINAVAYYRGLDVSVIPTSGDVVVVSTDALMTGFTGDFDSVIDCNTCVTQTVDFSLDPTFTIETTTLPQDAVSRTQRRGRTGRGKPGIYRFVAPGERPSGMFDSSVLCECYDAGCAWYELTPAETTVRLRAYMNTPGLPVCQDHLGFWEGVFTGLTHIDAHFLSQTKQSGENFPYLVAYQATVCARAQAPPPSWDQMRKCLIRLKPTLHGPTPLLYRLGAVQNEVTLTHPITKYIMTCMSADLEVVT

FMDV 3Dpol = FMDV 3Dpol (Foot-and-mouth disease virus serotype O, UniProt P03305); format: biochemical
Chain of FMDV 3Dpol (P03305 1863-2332 limits assumed): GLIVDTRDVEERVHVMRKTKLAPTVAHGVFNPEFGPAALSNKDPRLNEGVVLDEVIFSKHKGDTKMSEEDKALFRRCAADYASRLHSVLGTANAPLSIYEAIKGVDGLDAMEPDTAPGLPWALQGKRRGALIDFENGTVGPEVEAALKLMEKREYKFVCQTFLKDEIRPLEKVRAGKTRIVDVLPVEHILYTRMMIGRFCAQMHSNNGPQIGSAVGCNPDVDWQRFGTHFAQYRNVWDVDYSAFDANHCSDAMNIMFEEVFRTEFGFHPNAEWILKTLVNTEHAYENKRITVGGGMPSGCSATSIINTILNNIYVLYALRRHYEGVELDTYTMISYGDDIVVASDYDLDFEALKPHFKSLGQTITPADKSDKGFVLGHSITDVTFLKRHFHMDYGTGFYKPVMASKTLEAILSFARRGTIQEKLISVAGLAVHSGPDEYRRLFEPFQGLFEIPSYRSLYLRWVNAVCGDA

[8] = biological target: MoMLV Reverse Transcriptase (Moloney murine leukemia virus, UniProt P03355); format: biochemical

Chain of Dengue virus NS3 helicase (P14340 1476-2093 limits assumed): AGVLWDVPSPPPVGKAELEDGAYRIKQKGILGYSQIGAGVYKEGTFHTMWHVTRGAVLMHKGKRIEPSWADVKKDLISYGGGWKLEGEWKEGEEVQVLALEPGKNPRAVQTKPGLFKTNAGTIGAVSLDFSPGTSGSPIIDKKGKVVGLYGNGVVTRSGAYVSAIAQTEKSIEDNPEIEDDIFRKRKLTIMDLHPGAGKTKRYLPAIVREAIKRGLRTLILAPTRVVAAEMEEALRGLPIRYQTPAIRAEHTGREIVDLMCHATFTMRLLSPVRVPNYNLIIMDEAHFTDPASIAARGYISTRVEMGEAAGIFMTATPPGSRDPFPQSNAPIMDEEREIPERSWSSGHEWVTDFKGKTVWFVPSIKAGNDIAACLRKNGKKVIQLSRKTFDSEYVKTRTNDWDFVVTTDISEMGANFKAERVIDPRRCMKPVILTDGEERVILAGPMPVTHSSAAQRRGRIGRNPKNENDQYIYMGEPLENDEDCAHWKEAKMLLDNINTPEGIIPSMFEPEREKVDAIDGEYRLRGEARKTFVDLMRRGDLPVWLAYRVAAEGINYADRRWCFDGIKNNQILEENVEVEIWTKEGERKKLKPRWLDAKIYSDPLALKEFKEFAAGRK

## C=CCn1c(S)nnc1CSc1ccccc1[N+](=O)[O-] [SSYA10-001, 3-[(2-nitrophenyl)sulfanylmethyl]-4-prop-2-enyl-1H-1,2,4-triazole-5-thione]
nsp13 [1]
  effect on ATP hydrolysis by nsp13: did not affect
RNA pol II/CMV promoter
  amount of RNA synthesized in NRC-transfected cells with vs without compound: No difference was observed
[2]
  inhibition of Dengue virus NS3 helicase activity: specific for SARS-CoV helicase
dsDNA (31/18-mer)
  change of pico green fluorescent counts with dsDNA: did not change
nsp13 [3]
  effect on nsp13 binding to DNA: did not affect
SARS-CoV nsp13 helicase; IC50 DNA (nsp13 unwinding)
  IC50: 5.3 ± 2 µM
SARS-CoV nsp13 helicase; IC50 RNA (nsp13 unwinding)
  IC50: 5.7 ± 2.3 µM
SARS-CoV nsp13 helicase; IC50 SARS-CoV RNA (nsp13 unwinding)
  IC50: 5.6 ± 0.5 µM
SARS-CoV nsp13 helicase; read-out: inhibition of the helicase activity
  inhibition at 20 µM: ~100%
HEK293T cells
  cytotoxicity at 250 μM: No cytotoxicity was observed
nsp13 [4]
  Ki: 6 ± 1.7 µM
  mode of inhibition with respect to ATP and nucleic acid substrates: non-competitive
SARS-CoV replicon [5]; Severe acute respiratory syndrome coronavirus, HEK-293T, 48 h
  EC50: 8.95 µM
SARS-CoV replicon [5]
  EC50: ~9 µM
In vitro
  CC50: > 250 µM
[6]
  effect on KF polymerization and strand displacement (nucleic acid binding of the substance): did not prevent
  inhibition of KF polymerase: did not cause inhibition
WT-nsp13
  IC50: 6 µM
SARS-CoV replicon [7]
  effect on SARS-CoV replication (RNase protection assay): interfered with SARS-CoV replication
HEK 293T cells
  cytostatic effect (cell proliferation): did not interfere with the proliferation
HCV NS3h helicase
  inhibition of HCV NS3h helicase activity: did not inhibit; also recorded: specific for SARS-CoV helicase
FMDV 3Dpol
  inhibition of FMDV 3Dpol polymerase: did not cause inhibition
[8]
  inhibition of MoMLV Reverse Transcriptase: did not cause inhibition
